Consider 13 compounds from ChEMBL document CHEMBL1201862, “PubChem BioAssay data set” (2004).

The structures appear in SMILES notation.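 48-hour exposure; five concentrations; linearly interpolated endpoints. GI50: concentration for 50% inhibition of growth.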 Activity calls are given as the source filed them. No stated cut-off is given here; in the data, active = GI50 up to about 1.1 µM and inactive = higher.

Among the test systems are HCT-116; UACC-62; RXF 393; SNB-19; NCI-H460; TK-10; SK-MEL-28; UACC-257; M14; NCI-H226; SNB-75; 786-0; MOLT-4; HCT-15; KM12; OVCAR-4; A498; HCC 2998.
What all share (test): inhibition of tumour cell growth, NCI panel, 48 h

Consider `O=C(O)c1ccccc1/N=N/c1ccc2oc(=O)c(C(=O)Nc3ccccc3)cc2c1`, for which the GI50 was 29.6 µM (inactive) in the assay with HCT-116; 22.9 µM (inactive) in the assay with UACC-62; 28.4 µM (inactive) with RXF 393; 32.3 µM (inactive) in the assay on SNB-19; 36.6 µM (inactive) in the assay with NCI-H460; 61.5 µM (inactive) in the assay with TK-10. Also, the GI50 in the assay on SK-MEL-28 was 36.6 µM (inactive); with UACC-257, 24.6 µM (inactive); in the assay with M14, 47.9 µM (inactive); in the assay with NCI-H226, 25.7 µM (inactive); in the assay on SNB-75 it was 33 µM (inactive); in the assay with 786-0, 70.8 µM (inactive). Besides, the GI50 was 32.8 µM (inactive) in the assay on MOLT-4, 32.7 µM in the assay with HCT-15 and 31.8 µM (inactive) in the assay with KM12.
Turning to `Cc1c2n(c(=O)[nH]c1=O)C1OC(CO)C(O2)C1O` (configuration not stated), the GI50 in the assay with HCT-116, in the assay on UACC-62, in the assay with RXF 393, in the assay with SNB-19, in the assay with NCI-H460 and in the assay with TK-10 was > 100 µM (inactive) each time. In addition, the GI50 in the assay on SK-MEL-28, with UACC-257, in the assay on NCI-H226, in the assay with SNB-75, in the assay on OVCAR-4 and in the assay with 786-0 was > 100 µM (inactive) each time. The GI50 is > 100 µM (inactive) in the assay on MOLT-4, greater than 100 µM in the assay on HCT-15, 23 µM (inactive) in the assay on A498 and > 100 µM (inactive) with KM12.
Take `Cc1c(C(=O)/C=C/c2c(Cl)cccc2Cl)c(=O)n(-c2ccccc2)n1C`: the GI50 in the assay on HCT-116 is 8.53 µM (inactive); in the assay on UACC-62, 21.6 µM (inactive); with RXF 393, 5.79 µM (inactive); in the assay with SNB-19 it was 31.9 µM (inactive); with NCI-H460, 11.4 µM (inactive); in the assay with TK-10, 54.7 µM (inactive). In addition, the GI50 was 36.1 µM (inactive) in the assay on SK-MEL-28; 20.9 µM (inactive) in the assay with UACC-257; 21.3 µM (inactive) with NCI-H226; 23 µM (inactive) with HCC 2998; 11.1 µM (inactive) in the assay with 786-0; 5.38 µM (inactive) in the assay with MOLT-4. Further, the GI50 in the assay on HCT-15 is 19.5 µM; with A498, 22.4 µM (inactive); in the assay with KM12, 15.9 µM (inactive).
Consider `CCC(CC)NC1=C(NC(C)=O)C(=O)c2ccccc2C1=O`, for which the GI50 in the assay on HCT-116, with UACC-62, in the assay with RXF 393, with SNB-19, in the assay on NCI-H460 and with TK-10 was > 50 µM (inactive) each time. Moreover, the GI50 in the assay on SK-MEL-28, in the assay on UACC-257, with M14, with NCI-H226, in the assay on SNB-75 and in the assay with HCC 2998 was > 50 µM (inactive) in each case. Besides, the GI50 was > 50 µM (inactive) in the assay with OVCAR-4; > 50 µM (inactive) in the assay with 786-0; > 50 µM (inactive) with MOLT-4; greater than 50 µM with HCT-15; > 50 µM (inactive) in the assay on KM12.
On to `COC(=O)C(/C(=N/N)C(=O)Nc1cc(Cl)ccc1Cl)c1nc2ccc([N+](=O)[O-])cc2nc1O` (configuration not stated), for which the GI50 in the assay with HCT-116, in the assay on UACC-62, with SNB-19, in the assay with NCI-H460, in the assay with TK-10 and in the assay on SK-MEL-28 was > 100 µM (inactive) in each case. Besides, the GI50 is > 100 µM (inactive) in the assay on UACC-257; 72.3 µM (inactive) with M14; > 100 µM (inactive) with NCI-H226; 74.6 µM (inactive) in the assay on HCC 2998; > 100 µM (inactive) in the assay on OVCAR-4; > 100 µM (inactive) in the assay with 786-0. Further, the GI50 in the assay with MOLT-4 is 17 µM (inactive); with HCT-15 it was 76.4 µM; in the assay with A498, 58.5 µM (inactive); with KM12, > 100 µM (inactive).
Consider `COC1(OC)C(N(C)C)=C(Cl)C(=O)/C1=C/C=O`, for which the GI50 in the assay on HCT-116 was > 100 µM (inactive); in the assay on UACC-62, 40 µM (inactive); with SNB-19, > 100 µM (inactive); in the assay on NCI-H460 it was > 100 µM (inactive); in the assay on TK-10, > 100 µM (inactive); in the assay on SK-MEL-28, 53.8 µM (inactive). Also, the GI50 in the assay with UACC-257 was 83.8 µM (inactive); in the assay on M14, > 100 µM (inactive); in the assay on NCI-H226 it was > 100 µM (inactive); in the assay with HCC 2998, > 100 µM (inactive); in the assay with OVCAR-4 it was > 100 µM (inactive); with 786-0, > 100 µM (inactive). Further, the results for the GI50 in the assay on MOLT-4, in the assay with HCT-15 and with A498 were > 100 µM (inactive), 98.9 µM and > 100 µM (inactive), respectively.
On to `C=CNC(=O)NC(=O)CSc1nc(=O)c(-c2ccccc2NC(=O)C(F)(F)F)n[nH]1`, for which the GI50 in the assay on HCT-116 is > 100 µM (inactive); in the assay with UACC-62, > 100 µM (inactive); in the assay with RXF 393 it was > 100 µM (inactive); with SNB-19, 32.2 µM (inactive); in the assay on NCI-H460, 48.4 µM (inactive); in the assay with TK-10, 68.9 µM (inactive). Besides, the GI50 with SK-MEL-28 is 66.2 µM (inactive); in the assay on M14, 23.4 µM (inactive); with NCI-H226, 10.7 µM (inactive); in the assay with SNB-75, 0.071 µM (active); with HCC 2998, > 100 µM (inactive); in the assay with 786-0, 51.2 µM (inactive). Further, the GI50 in the assay with MOLT-4 is > 100 µM (inactive); with HCT-15, greater than 100 µM; with KM12, > 100 µM (inactive).
On to `CC(C)C1CCC/C=C/C=C/C=C/C=C/C(OC2OC(C)C(O)C(N)C2O)CC2OC(O)(CC(O)CC(O)C(O)CCC(=O)O1)CC(O)C2C(=O)O` (configuration not stated), for which the GI50 in the assay with HCT-116, in the assay on UACC-62, in the assay on SNB-19, in the assay with SK-MEL-28, in the assay with M14 and in the assay with SNB-75 was > 52.5 µM (inactive) throughout. In addition, the GI50 with 786-0 was > 52.5 µM (inactive); in the assay with MOLT-4, > 52.5 µM (inactive); in the assay on HCT-15, greater than 52.5 µM; in the assay with A498, > 52.5 µM (inactive).
On to `CC(C)(C)c1cc(C(P(=O)(O)O)P(=O)(O)O)cc(C(C)(C)C)c1O`, for which the GI50 in the assay with HCT-116, in the assay with UACC-62, with SNB-19, with NCI-H460, in the assay with TK-10 and in the assay on SK-MEL-28 was > 100 µM (inactive) each time. For the same compound, the GI50 with UACC-257 was > 100 µM (inactive); with M14, > 100 µM (inactive); in the assay with NCI-H226, > 100 µM (inactive); with SNB-75, 95.1 µM (inactive); in the assay with HCC 2998 it was > 100 µM (inactive); in the assay on OVCAR-4, > 100 µM (inactive). For the same compound, the GI50 with 786-0 was > 100 µM (inactive); with MOLT-4, > 100 µM (inactive); with HCT-15, greater than 100 µM; in the assay with A498, > 100 µM (inactive); with KM12, > 100 µM (inactive).
With `COC1OC(C)C(O)CC1OS(=O)(=O)c1ccc(C)cc1` (configuration not stated), the GI50 in the assay with HCT-116, with UACC-62, in the assay on RXF 393, in the assay on SNB-19, in the assay with NCI-H460 and in the assay with TK-10 was > 100 µM (inactive) each time. Also, the GI50 in the assay with SK-MEL-28 is > 100 µM (inactive); in the assay with UACC-257, > 100 µM (inactive); in the assay on M14, > 100 µM (inactive); in the assay on NCI-H226 it was > 100 µM (inactive); in the assay on SNB-75, 37.9 µM (inactive); in the assay on OVCAR-4, > 100 µM (inactive). For the same compound, the GI50 in the assay on 786-0 is > 100 µM (inactive); in the assay with MOLT-4, > 100 µM (inactive); in the assay on HCT-15 it was greater than 100 µM; in the assay with A498 it was > 100 µM (inactive); with KM12 it was > 100 µM (inactive).
On to `CC1=C(C(=O)Nc2cccc(C(F)(F)F)c2)C(c2ccc(O)cc2)C(C(=O)Nc2cccc(C(F)(F)F)c2)=C(C)N1`, for which the GI50 was 14.6 µM (inactive) in the assay on HCT-116; 10.1 µM (inactive) in the assay with RXF 393; 32.2 µM (inactive) with SNB-19; 16.7 µM (inactive) in the assay on NCI-H460; 26.1 µM (inactive) with TK-10; 18.7 µM (inactive) with SK-MEL-28. Besides, the GI50 in the assay with UACC-257 is 17.7 µM (inactive); with M14, 14.9 µM (inactive); in the assay on NCI-H226, 17.3 µM (inactive); in the assay on SNB-75, 17.2 µM (inactive); in the assay on HCC 2998 it was 17.3 µM (inactive); with OVCAR-4 it was 14.8 µM (inactive). The GI50 with 786-0 is 16.7 µM (inactive); with MOLT-4, 7.98 µM (inactive); in the assay with A498, 17.5 µM (inactive); with KM12, 15.8 µM (inactive).
Regarding `CC(=O)C1C(=O)N(C(C)C)C[C@@H]2CCC(=O)C[C@H]12` (some centres not stated), the GI50 in the assay with HCT-116, in the assay on UACC-62, with RXF 393, in the assay on SNB-19, in the assay on NCI-H460 and in the assay with TK-10 was > 100 µM (inactive) in each case. Also, the GI50 in the assay on SK-MEL-28, in the assay with UACC-257, with M14, in the assay on SNB-75, in the assay on HCC 2998 and in the assay on OVCAR-4 was > 100 µM (inactive) in each case. Besides, the GI50 with 786-0 is > 100 µM (inactive); in the assay on MOLT-4 it was > 100 µM (inactive); in the assay with HCT-15, greater than 100 µM; in the assay on A498, > 100 µM (inactive); with KM12, > 100 µM (inactive).
On to `O=C(c1ccc(Cl)cc1)N(C(=S)N1CCN(c2ccccn2)CC1)C1CCCCC1`, for which the GI50 was 36.6 µM (inactive) with HCT-116; > 100 µM (inactive) in the assay on UACC-62; 35.6 µM (inactive) in the assay with RXF 393; 96.4 µM (inactive) in the assay on SNB-19; 30 µM (inactive) in the assay with NCI-H460; > 100 µM (inactive) in the assay on TK-10. Also, the GI50 in the assay on SK-MEL-28 was > 100 µM (inactive); in the assay with UACC-257, 30.8 µM (inactive); in the assay on M14 it was > 100 µM (inactive); in the assay on NCI-H226, 18.2 µM (inactive); with SNB-75, > 100 µM (inactive); in the assay with OVCAR-4 it was > 100 µM (inactive). Further, the GI50 in the assay with 786-0 is 36.4 µM (inactive); in the assay on MOLT-4, 24.3 µM (inactive); with HCT-15, 43.8 µM; in the assay on KM12 it was 68.1 µM (inactive).
